# Patent US20220380383A1, “NEUROPROTECTIVE PDI MODULATING SMALL MOLECULES AND METHODS OF USE THEREOF” (THE TRUSTEES OF COLUMBIA UNIVERSITY IN THE CITY OF NEW YORK, priority 2018, published 2022)
# Read-outs that look alike come from different tables or passages of the source.
# Key:
# [1] = Solubility (stock solvent)
# PC12 mHTTQ103 cells = experiment: Rescue of PC12 cells from mHTTQ103-induced cell death; type: cell-based, rat; conditions: for EC50: Rattus norvegicus, PC-12
# [2] = target: T1, human catalytic PDI A1 a domain (PDIa) (Homo sapiens, UniProt P07237); experiment: Isothermal titration calorimetry (ITC) binding to PDIa
# T1 construct: made in house; host or cells: Escherichia coli BL21-Gold (DE3)
# Protocol: All ITC experiments were carried out at 25° C. on MicoCal Auto-ITC200 system (GE Healthcare). […] ITC titration experiments were carried out at 25° C. with 19 injections, 2 μl per injection, and 180 seconds between each injection. The reference cell power was set to 5 μcal/sec. A control experiment was performed for each compound, where each compound was titrated into buffer to account for heat released due to dilution. This background was subtracted from test data before a final dissociation constant was obtained. […] Gibbs free energy, ΔG, was calculated from equation ΔG=ΔH-TΔS. All other parameters, Ka, n, ΔH, ΔS, were determined directly from the titration data.
# LOC14 analogs were designed and synthesized as described in the synthetic schemes. The analogs were evaluated for their binding to PDIa using isothermal titration calorimetry (ITC) (results of certain compounds are shown in FIGS. 1A-1E). Next, the analogs were tested for their ability to rescue PC12 cells from mHTT^Q103 induced cell death in a dose-dependent manner (results of certain compounds are shown in FIG. 2).
# [3] = Tables 5-13, solvent not given (DMSO in Table 1)
# [4] = rescue from mHTTQ103 induced cell death, read-out: PC12 cells EC50
# [5] = rescue from mHTTQ103 induced cell death
# [6] = Tables 5-13, PC12 cells, read-out: EC50
# [7] = Tables 5-13, NA = not active, read-out: Kd
# T1 sequence (P07237 18-134): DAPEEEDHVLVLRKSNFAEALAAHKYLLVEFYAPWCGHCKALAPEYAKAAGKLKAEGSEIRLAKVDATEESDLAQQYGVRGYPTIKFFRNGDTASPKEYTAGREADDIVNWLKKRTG
Structure (SMILES),Solubility [1],"Solubility [1, 3]","Kd ([2]; ITC assay, read-out: KD)","Kd ([2]; N/A = not active, read-out: ITC KD)","Kd [2, 7]",ITC KD ([2]; N/A = not active),EC50 (PC12 mHTTQ103 cells; [4]),"Max Viability (%) (PC12 mHTTQ103 cells; Tables 5-13, PC12 cells)",PC12 cells Max % Viability (PC12 mHTTQ103 cells; [5]),EC50 (PC12 mHTTQ103 cells; [6]),Solubility ([1]; in water),PC12 cells EC50 (PC12 mHTTQ103 cells; [5])
O=c1c2ccccc2sn1CN1CCN(Cn2sc3ccccc3c2=O)CC1 [LC-9],5 mM in DMSO,5 mM,13 nM,12.7 nM,–,–,173 nM,66%,66.07%,–,–,–
CC(C)(C)OC(=O)N1CCN(Cn2sc3ccccc3c2=O)CC1 [LC-10],100 mM in DMSO,100 mM,–,–,123 ± 34 nM,–,561 nM,72%,71.82%,581 nM,–,–
O=C(c1ccccc1)n1sc2ccccc2c1=O [LC-11],100 mM in DMSO,100 mM,–,–,–,KD = N/A irreversible or not active,–,28%,27.72%,> 50000 nM,–,–
O=c1c2ccccc2sn1CN1CCN(c2ncccn2)CC1 [LC-12],100 mM in DMSO,100 mM,–,–,140 ± 29 nM,–,–,68%,68.35%,416 nM,–,–
CC(=O)c1ccc(N2CCN(Cn3sc4ccccc4c3=O)CC2)cc1 [LC-13],100 mM in DMSO,100 mM,–,–,190 ± 27 nM,–,–,63%,63.14%,514 nM,–,–
O=C(C1CC1)N1CCN(Cn2sc3ccc(Cl)cc3c2=O)CC1 [LC-15],15 mM in DMSO,15 mM,–,–,114 nM,–,487 nM,57%,56.92%,487 nM,–,–
O=c1c2ccccc2sn1CN1CCOCC1 [LC-18],100 mM in DMSO,100 mM,–,–,253 nM,–,–,69%,69.00%,547 nM,–,–
O=C(NCc1ccc(Br)cc1)c1ccccc1S [LC-20],100 mM in DMSO,100 mM,–,–,–,KD = N/A irreversible or not active,–,42%,42.11%,> 50000 nM,–,–
O=C(Nc1ccc(N2CCOCC2)cc1)c1ccccc1S [LC-21],100 mM in DMSO,100 mM,–,–,–,KD = N/A irreversible or not active,–,32%,31.98%,696 nM,–,–
O=c1c2ccccc2sn1CN1CCN(Cc2ccccc2)CC1 [LC-22],100 mM in DMSO,100 mM,–,–,173 ± 32 nM,–,–,62%,61.51%,310 nM,–,–
O=C(Nc1ccc(Cc2ccccc2)cc1)c1ccccc1S [LC-23],100 mM in DMSO,100 mM,–,–,–,KD = N/A irreversible or not active,–,57%,56.53%,3880 nM,–,–
O=c1c2ccccc2sn1-c1ccc(Cc2ccccc2)cc1 [LC-25],100 mM in DMSO,100 mM,–,–,–,KD = N/A irreversible or not active,–,37%,36.83%,1590 nM,–,–
O=C(Nc1cccc(F)c1)c1ccccc1S [LC-30],100 mM in DMSO,100 mM,–,–,–,KD = N/A irreversible or not active,–,62%,62.38%,2990 nM,–,–
Cn1sccc1=O [LC-35],–,100 mM,–,–,–,KD = N/A irreversible or not acitve,–,15%,14.63%,–,100 mM in water,Not Active

# Further lines, with some results ahead:
Solubility [1],"Solubility [1, 3]","Kd ([2]; ITC assay, read-out: KD)","Kd ([2]; N/A = not active, read-out: ITC KD)","Kd [2, 7]",ITC KD ([2]; N/A = not active),Structure (SMILES),EC50 (PC12 mHTTQ103 cells; [4]),"Max Viability (%) (PC12 mHTTQ103 cells; Tables 5-13, PC12 cells)",PC12 cells Max % Viability (PC12 mHTTQ103 cells; [5]),EC50 (PC12 mHTTQ103 cells; [6]),Solubility ([1]; in water),PC12 cells EC50 (PC12 mHTTQ103 cells; [5])
100 mM in DMSO,100 mM,–,–,–,KD = N/A irreversible or not active,O=c1c2ccccc2sn1Cc1ccc(Br)cc1 [LC-26],–,38%,37.88%,778 nM,–,–
100 mM in DMSO,100 mM,–,–,–,KD = N/A irreversible or not active,C[C@@H](NC(=O)c1ccccc1S)c1ccccc1 [LC-28],–,56%,55.52%,808 nM,–,–
100 mM in DMSO,100 mM,–,–,658 nM,–,C[C@H](c1ccccc1)n1sc2ccccc2c1=O [LC-29],669 nM,42%,42.02%,669 nM,–,–
100 mM in DMSO,100 mM,–,–,–,KD = N/A irreversible or not active,O=c1c2ccccc2sn1-c1cccc(F)c1 [LC-31],–,36%,36.24%,1760 nM,–,–
100 mM in DMSO,100 mM,–,–,158 nM,–,COCCn1sc2ccccc2c1=O [LC-32],–,42%,41.96%,700 nM,–,–
100 mM in DMSO,100 mM,–,–,–,KD = N/A irreversible or not active,O=C(Nc1ccc(Oc2ccccc2)cc1)c1ccccc1S [LC-33],–,54%,54.43%,2940 nM,–,–
100 mM in DMSO,100 mM,–,–,–,KD = N/A irreversible or not active,Cc1ccc(NC(=O)c2ccccc2S)c(Br)c1 [LC-34],–,42%,41.95%,3770 nM,–,–
100 mM in DMSO,100 mM,–,–,–,KD = N/A irreversible or not active,O=c1c2ccccc2sn1-c1ccc(Oc2ccccc2)cc1 [LC-37],–,22%,21.77%,1680 nM,–,–
100 mM in DMSO,100 mM,–,–,–,KD = N/A irreversible or not active,O=c1[nH]sc2c(Cl)cccc12 [LC-38],–,8%,7.63%,–,–,Not Active
100 mM in DMSO,100 mM,–,–,–,KD = N/A irreversible or not active,O=C(C1CC1)N1CCN(Cn2sc3c(Cl)cccc3c2=O)CC1 [LC-39],–,7%,7.02%,–,–,Not Active
100 mM in DMSO,100 mM,–,–,–,KD = N/A irreversible or not active,O=c1[nH]sc2c(C(F)(F)F)cccc12 [LC-41],–,9%,9.16%,–,–,Not Active
